This is an account of results in publication PMC11154709, “4S-fluorination of ProB29 in insulin lispro slows fibril formation” (The Journal of Biological Chemistry, 2024).

The subject of one test is diabetic mice. The experiment in a line: Reduction of blood glucose in diabetic mice. Type of test: in vivo. The conditions noted are these: 5 to 10% of the standard injection (3.5 and 1.75 mg kg-1 as printed in SI), commercial Humalog, subcutaneous, STZ-diabetic male NODscid mice 15-18 week old; mean ± SD of 4 biological replicates (Fig. S2). How it is done: To verify bioactivity, lispro variants were injected subcutaneously into diabetic mice, and blood glucose was monitored over 2.5 h. Mouse models allow determination of activity but not time to onset of action ([27]). […] As expected, all lispro variants retained activity (Fig. 2A).
Figure 2 Biological activity and CD spectroscopy of lispro variants.A, lispros were injected subcutaneously into diabetic mice, and blood glucose was measured over time after injection. The data presented here represent the mean ± SD of 3 to 6 biological replicates. B–E, far-UV circular dichroism spectra (60 μM lispro in […] phosphate buffer, pH 8.0). […] 4R-F, 4R-fluoroproline; 4S-F, 4S-fluoroproline.
Experiments were conducted according to procedures approved by the Institutional Animal Care and Use Committee at the City of Hope. Adult (8–12 week old) male NODscid mice (Jackson Laboratory; stock # 001303) were injected intraperitoneally for three consecutive days with freshly prepared streptozotocin (45 mg kg^−1 body weight, suspended in 100 mM sodium citrate buffer, pH 4.5); diabetes was confirmed by the detection of high glucose levels (200–600 mg dL^−1) as measured by a glucomonitor (Freestyle, Abbott Diabetes Care). […] Blood glucose was measured from blood sampled from the lateral tail vein. […]
into the matrix solution (α -cyanohydroxycinnamic acid in 50% ACN, 0.1% TFA) and analyzed by […]

Test [1] deals with reversible monomer-dimer equilibrium. The following applies: read-out: Kd (monomer-dimer), previously reported; cited from earlier work. The source says:
The secondary structure of each insulin lispro variant was probed by circular dichroism spectroscopy. […] All lispro samples were further analyzed by analytical ultracentrifuga ...

In general, Kd refers to a measure of binding affinity in units of concentration.

Turning to “insulin lispro: fast-acting insulin with inversion of the residues ProB28 and LysB29; Humalog, Eli Lilly [reference compound]”, the “reduction of blood glucose at lower lispro doses” value in the test with diabetic mice is “did not similarly reduce blood glucose in diabetic mice”. Besides, in test [1], the Kd is 1100 µM.
